{
  "source": "paper PMC10066720",
  "about": "(Journal of the American Chemical Society, 2022)",
  "type_in_all_cases": "biochemical",
  "key": {"[1]": {"target": "T1, TEM-1 β-lactamase WT (Escherichia coli, UniProt P62593)", "assay": "AVB covalent inhibition kinetics"}, "[2]": {"target": "T2, TEM-1 β-lactamase A237R (Escherichia coli, UniProt P62593, A235R)", "assay": "AVB covalent inhibition kinetics", "conditions": "A237R TEM-1"}, "[3]": {"target": "T3, TEM-1 β-lactamase A237W (Escherichia coli, UniProt P62593, A235W)", "assay": "AVB covalent inhibition kinetics", "conditions": "A237W TEM-1"}, "[4]": {"target": "T4, TEM-1 β-lactamase A237E (Escherichia coli, UniProt P62593, A235E)", "assay": "AVB covalent inhibition kinetics", "conditions": "A237E TEM-1"}, "[5]": {"target": "T5, TEM-1 β-lactamase A237Y (Escherichia coli, UniProt P62593, A235Y)", "assay": "AVB covalent inhibition kinetics", "conditions": "A237Y TEM-1"}, "[6]": {"target": "T6, TEM-1 β-lactamase A237Y^e (ester) (Escherichia coli, UniProt P62593, A235Y)", "assay": "AVB covalent inhibition kinetics", "conditions": "A237Y^e (ester) TEM-1"}, "[7]": {"test_system": "TEM-1 β-lactamase A237Y^e (ester)", "assay": "AVB covalent inhibition kinetics", "conditions": "A237Y^e compared with A237Y"}, "[8]": {"target": "T2, TEM-1 β-lactamase A237R", "assay": "PenG acylation kinetics", "conditions": "A237R TEM-1; median [68.25% confidence interval]"}, "[9]": {"target": "T5, TEM-1 β-lactamase A237Y", "assay": "PenG acylation kinetics", "conditions": "A237Y TEM-1; median [68.25% confidence interval]"}, "[10]": {"target": "T4, TEM-1 β-lactamase A237E", "assay": "PenG acylation kinetics", "conditions": "A237E TEM-1; median [68.25% confidence interval]"}, "[11]": {"target": "T3, TEM-1 β-lactamase A237W", "assay": "PenG acylation kinetics", "conditions": "A237W TEM-1; median [68.25% confidence interval]"}, "[12]": {"target": "T6, TEM-1 β-lactamase A237Y^e (ester)", "assay": "PenG acylation kinetics", "conditions": "A237Y^e (ester) TEM-1; median [68.25% confidence interval]"}, "[13]": {"target": "T1, TEM-1 β-lactamase WT", "assay": "PenG acylation kinetics"}},
  "data": [
    {"smiles": "NC(=O)[C@@H]1CC[C@@H]2CN1C(=O)N2OS(=O)(=O)O", "note": "[AVB, avibactam]", "values": [
      {"measurement": "AVB carbamylation rate, kcbm", "setting": "[1]; WT TEM-1", "result": "23.1 ± 0.2", "unit": "s⁻¹"},
      {"measurement": "AVB recyclization rate, krec", "setting": "[1]; WT TEM-1", "result": "(2.3 ± 0.3) × 10^−4 s^−1"},
      {"measurement": "enhancement of kcbm by the active site electric field", "setting": "[1]; WT TEM·AVB, field −150 MV/cm", "result": "7.5 orders of magnitude"},
      {"measurement": "acceleration of recyclization by the active site electric field", "setting": "[1]; WT TEM−AVB, field −97 MV/cm", "result": "4.9 orders of magnitude"},
      {"measurement": "AVB carbamylation rate, kcbm", "setting": "[2]", "result": "3.63 ± 0.03", "unit": "s⁻¹"},
      {"measurement": "AVB recyclization rate, krec", "setting": "[2]", "result": "(6.2 ± 0.9) × 10^−4 s^−1"},
      {"measurement": "AVB carbamylation rate, kcbm", "setting": "[3]", "result": "3.31 ± 0.05", "unit": "s⁻¹"},
      {"measurement": "AVB recyclization rate, krec", "setting": "[3]", "result": "(6.7 ± 1.3) × 10^−4 s^−1"},
      {"measurement": "AVB carbamylation rate, kcbm", "setting": "[4]", "result": "4.63 ± 0.23", "unit": "s⁻¹"},
      {"measurement": "AVB recyclization rate, krec", "setting": "[4]", "result": "(8.7 ± 1.5) × 10^−5 s^−1"},
      {"measurement": "AVB carbamylation rate, kcbm", "setting": "[5]", "result": "6.19 ± 0.08", "unit": "s⁻¹"},
      {"measurement": "AVB recyclization rate, krec", "setting": "[5]", "result": "(1.7 ± 0.3) × 10^−3 s^−1"},
      {"measurement": "AVB carbamylation rate, kcbm", "setting": "[6]", "result": "(1.8 ± 0.1) × 10^−3 s^−1"},
      {"measurement": "AVB recyclization rate, krec", "setting": "[6]", "result": "(3.4 ± 0.1) × 10^−7 s^−1"},
      {"measurement": "decrease in kcbm, factor", "setting": "[7]", "result": "3.5 × 10^3"},
      {"measurement": "decrease in krec, factor", "setting": "[7]", "result": "5.0 × 10^3"}
    ]},
    {"smiles": "CC1(C)S[C@@H]2[C@H](NC(=O)Cc3ccccc3)C(=O)N2[C@H]1C(=O)O", "note": "[PenG, penicillin G]", "values": [
      {"measurement": "PenG acylation rate, kac", "setting": "[8]", "result": "3265 [3137, 3396] s^−1"},
      {"measurement": "PenG acylation rate, kac", "setting": "[9]", "result": "2838 [2740, 2940] s^−1"},
      {"measurement": "PenG acylation rate, kac", "setting": "[10]", "result": "5857 [5288, 6012] s^−1"},
      {"measurement": "PenG acylation rate, kac", "setting": "[11]", "result": "1390 [1366, 1415] s^−1"},
      {"measurement": "PenG acylation rate, kac", "setting": "[12]", "result": "86.1 [69.2, 97.0] s^−1"},
      {"measurement": "PenG acylation rate, kac", "setting": "[13]; WT TEM-1, median [68.25% confidence interval]", "result": "4941 [4784, 5086] s^−1"},
      {"measurement": "enhancement of kac by the active site electric field", "setting": "[13]; WT TEM·PenG, field −171 MV/cm", "result": "8.6 orders of magnitude"}
    ]}
  ]
}
